Key:
Format in all cases: in vivo
[1] = system: Triticum aestivum (TRZAS); experiment: F. Post-emergence effect on useful plants, TRZAS; conditions: useful plant
In short: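 Crop plants grown in sandy loam in the greenhouse were sprayed at the one-leaf stage, 2-3 weeks after sowing, with WP or EC formulations plus 0.5% additive at 600 l/ha water. Damage was scored visually after about 3 weeks against untreated controls (0% = like control, 100% = dead).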

Lolium rigidum (LOLRI) = experiment: C. Herbicidal pre-emergence efficacy, LOLRI; conditions: 320 g/ha, scored after about 3 weeks
In short: (§1)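 Pre-emergence test: formulated compounds sprayed as aqueous suspension or emulsion with 0.5% additive at 600 l/ha onto soil covering sown seeds, at rates corresponding to 320 g/ha or less. After about 3 weeks in greenhouse, efficacy scored visually as percent versus untreated controls (100% = plants dead).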

[2] = system: Abutilon theophrasti (ABUTH); experiment: B. Herbicidal post-emergence efficacy, ABUTH; conditions: rated visually after about 3 weeks
In short: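 Visual percent efficacy relative to untreated controls (0% unaffected, 100% dead), scored roughly 3 weeks after foliar spraying of one-leaf-stage pot-grown plants with WP or EC preparations at application rates up to 1280 g/ha in 600 L/ha water containing 0.5% additive.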

Setaria viridis (SETVI) [3] = experiment: C. Herbicidal pre-emergence efficacy, SETVI; conditions: scored after about 3 weeks
In short: as §1

[4] = system: Triticum aestivum (TRZAS); experiment: D. Pre-emergence effect on useful plants, TRZAS; conditions: useful plant
In short: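 Seeds sown in pots and covered with soil; WP or EC formulations sprayed on the soil surface as aqueous suspension/emulsion with 0.5% additive at 600 l/ha water. Plants grown in greenhouse; crop damage scored visually after about 3 weeks as % versus untreated controls (100% = dead, 0% = like control).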

Setaria viridis (SETVI) [5] = experiment: E. Herbicidal post-emergence efficacy, SETVI
In short: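 Greenhouse post-emergence spray, one-leaf stage (2–3 wk after sowing, sandy loam); WP/EC formulation, aqueous + 0.5% additive, 600 l/ha water; rates 320 g/ha or less. Visual rating ~3 wk later vs untreated; 0% = control-like, 100% = dead.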

[6] = system: Alopecurus myosuroides (ALOMY); experiment: C. Herbicidal pre-emergence efficacy, ALOMY; conditions: scored after about 3 weeks
In short: as §1

[7] = system: Matricaria inodora (MATIN); experiment: A. Herbicidal pre-emergence efficacy, MATIN
In short: (§2)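 Pre-emergence soil-surface spray in sandy loam pots, WP/EC in water plus 0.5% additive, 600 L/ha. Visual % damage rating after about 3 weeks in greenhouse vs. untreated; 0% = control-like, 100% = dead plants. Rates up to 1280 g/ha.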

Stellaria media (STEME) = experiment: A. Herbicidal pre-emergence efficacy, STEME
In short: as §2

[8] = pre-emergence, dosage 1280 g/ha
[9] = 320 g/ha, scored visually after about 3 weeks vs untreated controls

| Structure (SMILES) | Post-emergence efficacy against TRZAS in % ([1]; application rate 80 g/ha) [%] | Pre-emergence efficacy against LOLRI (Lolium rigidum (LOLRI)) [%] | Post-emergence efficacy against ABUTH in % ([2]; 80 g/ha) [%] | Post-emergence efficacy against ABUTH in % ([2]; 320 g/ha) [%] | Post-emergence efficacy against ABUTH in % ([2]; 1280 g/ha) [%] | Pre-emergence efficacy against SETVI (Setaria viridis (SETVI) [3]; 80 g/ha) [%] | Pre-emergence efficacy against SETVI (Setaria viridis (SETVI) [3]; 320 g/ha) [%] | Pre-emergence efficacy against TRZAS in % ([4]; application rate 80 g/ha) [%] | Post-emergence efficacy against SETVI in % (Setaria viridis (SETVI) [5]; application rate 80 g/ha) [%] | Post-emergence efficacy against SETVI in % (Setaria viridis (SETVI) [5]; application rate 320 g/ha) [%] | Pre-emergence efficacy against ALOMY ([6]; 80 g/ha) [%] | Pre-emergence efficacy against ALOMY ([6]; 320 g/ha) [%] | Pre-emergence efficacy against MATIN [7, 8] [%] | Pre-emergence efficacy against STEME (Stellaria media (STEME); dosage 80 g/ha) [%] | Pre-emergence efficacy against STEME (Stellaria media (STEME); dosage 320 g/ha) [%] | Pre-emergence efficacy against STEME (Stellaria media (STEME); dosage 1280 g/ha) [%] | Post-emergence efficacy against TRZAS in % ([1]; application rate 320 g/ha) [%] | Pre-emergence efficacy against MATIN [7, 9] [%] | Pre-emergence efficacy against TRZAS in % ([4]; application rate 320 g/ha) [%] |
| --- | --- | --- | --- | --- | --- | --- | --- | --- | --- | --- | --- | --- | --- | --- | --- | --- | --- | --- | --- |
| O=S(=O)(CCCCl)Oc1ccccc1Oc1ncc(Cl)cn1 [Example I-2] | 0 | 100 | 100 | 100 | 100 | 100 | 100 | 0 | 100 | 100 | 90 | 100 | 100 | 100 | 100 | 100 | – | – | – |
| CCCS(=O)(=O)Oc1ccccc1Oc1ncc(Cl)cn1 [Example I-3] | 0 | 90 | – | 90 | 100 | 100 | 100 | 10 | – | 90 | – | 100 | 100 | 100 | 100 | 100 | 10 | 100 | – |
| O=S(=O)(CCC(F)(F)F)Oc1ccccc1Oc1ncc(Cl)cn1 [Example I-8] | 20 | 100 | – | – | 90 | 100 | 100 | 20 | 90 | 90 | 90 | 100 | 100 | 100 | 100 | 100 | – | 90 | – |
| O=S(=O)(CC1CC1)Oc1ccccc1Oc1ncc(Cl)cn1 [Example I-23] | 0 | 100 | – | 90 | 100 | 100 | 100 | 0 | 80 | 100 | 80 | 100 | 100 | 100 | 100 | 100 | – | 90 | – |
| O=S(=O)(CCC(F)(F)F)Oc1c(Cl)cccc1Oc1ncc(Cl)cn1 [Example I-38] | 10 | 100 | – | – | – | 100 | 100 | 0 | 100 | 100 | – | 100 | 100 | 100 | 100 | 100 | 20 | 100 | – |
| O=S(=O)(CCCC(F)(F)F)Oc1c(F)cccc1Oc1ncc(Br)cn1 [Example I-41] | 0 | 100 | – | – | – | 100 | 100 | 20 | 100 | 100 | – | 100 | 100 | 100 | 100 | 100 | – | 100 | – |
| Cc1cccc(Oc2ncc(F)cn2)c1OS(=O)(=O)CCC(F)(F)F [Example I-45] | 0 | 90 | – | 100 | 100 | 100 | 100 | 0 | – | 80 | – | 100 | 90 | 90 | 100 | 100 | 0 | – | – |
| C=CCCS(=O)(=O)Oc1c(F)cccc1Oc1ncc(Cl)cn1 [Example I-50] | 0 | 100 | – | 90 | 90 | 100 | 100 | 0 | – | 90 | – | 90 | 90 | – | 100 | 100 | 10 | – | – |
| COCCS(=O)(=O)Oc1c(F)cccc1Oc1ncc(Cl)cn1 [Example I-52] | 0 | 90 | – | – | 90 | – | 100 | 0 | – | 80 | – | 100 | 90 | 90 | 90 | 100 | 0 | – | – |
| O=S(=O)(CCC1CC1)Oc1c(F)cccc1Oc1ncc(Cl)cn1 [Example I-55] | 20 | 90 | 90 | 90 | 90 | 80 | 90 | 0 | 80 | 90 | – | – | – | – | 100 | 100 | – | – | – |
| O=S(=O)(CCC(F)=C(F)F)Oc1c(F)cccc1Oc1ncc(Cl)cn1 [Example I-70] | 20 | 100 | – | – | – | 90 | 100 | 0 | 100 | 100 | – | 100 | – | – | – | – | – | – | – |
| O=S(=O)(CCC(F)=C(F)F)Oc1c(Cl)cccc1Oc1ncc(Cl)cn1 [Example I-73] | 0 | 80 | 90 | 100 | 100 | – | 100 | 0 | – | – | – | – | – | – | 100 | 100 | 20 | – | 20 |
| N#Cc1cccc(Oc2ncc(Cl)cn2)c1OS(=O)(=O)CCCC(F)(F)F [Example I-81] | 0 | 90 | – | – | – | 100 | 100 | 0 | – | 100 | – | 90 | – | – | – | – | – | – | – |

From patent US20240174618A1, “SUBSTITUTED (2-HETEROARYLOXYPHENYL)SULFONATES, SALTS THEREOF AND THEIR USE AS HERBICIDAL AGENTS” (Bayer Aktiengesellschaft, priority 2021, published 2024)
